# Numbers after ± are expanded uncertainties.
# Experiments:
# [1] = 298 K; 101.33 kPa; Crystal; X-ray diffraction
# [2] = refractive index (Na D-line) (dimensionless); mn = molality of the nth substance listed, in mol/kg; conditions: 293.15 K; 101 kPa; Liquid; Standard Abbe refractometry; m1 = 0.02
mass density [1],refractive index [2],Compound
1749 ± 9 kg/m3,–,CC(=O)C(=O)[O-].[Na+] [sodium pyruvate]
–,1.3308 ± 0.0007,CC(=O)C(=O)[O-].[Na+] [sodium pyruvate] + O

# Source: the NIST ThermoML archive (doi:10.1016/j.jct.2014.06.029)
